Measurements taken from patent publication US11353463B2, “Redox-based reagents for methionine bioconjugation” (The Regents of the University of California, priority 2016, dated 2022).

How the values were obtained:
[1] = molecular target: bovine serum albumin (BSA) (Bos taurus, UniProt P02769); assay: ReACT labeling of BSA, CuAAC with Cy3-azide, in-gel fluorescence imaging
Protocol: FIG. 1A Left panel: Acid-base conjugation strategies for cysteine-based protein functionalization; Right panel: Redox-Activated Chemical Tagging (ReACT) strategies for methionine-based protein functionalization. Oxaziridine (Ox) compounds serve as oxidant-sulfimide conjugation product. (B) Model redox conjugation reaction with 25 μM of N-acetyl-L-methionine methyl ester (Si) and 27.5 μM of various oxaziridine compounds as substrates in co-solvent. (C) Number of unique redox conjugation carrying peptide on representative amino acid, namely Met, Lys and Cys by labeling HeLa cell lysate with Ox4 at the final concentration of 1 mM for 10 min. (D) Yield of conjugation reaction was performed with 15 μM of BSA carrying 4 methionine per protein and 100 μM Ox4 at indicated time point as measured by in-gel fluorescence imaging.
ReACT as a method for site-selective methionine conjugation of proteins was evaluated. […] The resulting redox conjugation yield to BSA was analyzed by in-gel fluorescence imaging. […] The reactivity of various alkyne- and azide-containing oxaziridine probes with CaM model protein was assessed (FIG. 2B). […]

[2] = Stability of redox conjugation product sulfimide (NMR); type: physicochemical; details: salt form under strong acidic condition
Protocol: The reactivity of oxaziridine probes with other biologically relevant amino acid competitors was evaluated. […] HeLa cell lysates were treated with Ox4, trypsin digested, and then analyzed by LC-MS/MS for probe modification on all nucleophilic amino acids using the X!Tandem program^43. […] Finally, the chemical stability of the sulfimide methionine conjugation product was tested, finding that this linkage is resistant to acidic and basic conditions, elevated temperature, as well as treatment with a strong protein disulfide reducing agent such as tris(2-carboxyethyl)phophine (TCEP).
The stability of sulfimides were tested by treatment of sulfimides S2 with 5 mM TCEP or treatment of sulfimides S3 with 1 N HC1, 1 N NaOH or 80° C. in co-solvent (d-MeOD/D2O=1:1). The reactions were monitored by NMR after 1 h and 18 h and the reaction conversions were calculated based on NMR data.

Sequence of bovine serum albumin (BSA) (P02769 25-607): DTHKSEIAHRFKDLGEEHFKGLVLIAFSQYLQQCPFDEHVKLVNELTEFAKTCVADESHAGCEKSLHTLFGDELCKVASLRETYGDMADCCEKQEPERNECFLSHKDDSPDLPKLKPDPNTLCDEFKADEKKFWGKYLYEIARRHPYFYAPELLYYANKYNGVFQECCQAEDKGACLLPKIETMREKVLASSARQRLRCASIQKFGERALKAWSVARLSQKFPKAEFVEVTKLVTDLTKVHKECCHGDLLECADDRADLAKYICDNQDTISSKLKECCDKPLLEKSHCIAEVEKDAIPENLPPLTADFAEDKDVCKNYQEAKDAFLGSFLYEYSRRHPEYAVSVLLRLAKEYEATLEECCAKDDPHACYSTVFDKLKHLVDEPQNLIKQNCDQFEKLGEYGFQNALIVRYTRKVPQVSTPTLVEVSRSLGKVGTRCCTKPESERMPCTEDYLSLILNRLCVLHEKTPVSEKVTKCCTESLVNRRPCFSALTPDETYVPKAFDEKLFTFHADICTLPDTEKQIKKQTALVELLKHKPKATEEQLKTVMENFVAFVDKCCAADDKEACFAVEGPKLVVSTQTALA

Compound | redox conjugation yield to BSA ([1]; within 1-2 min, 15 μM BSA, 100 μM Ox4) [%] | labeling of BSA ([1]; within the first 5 s following addition of Ox4) [%] | stability in aqueous solution [2]
C#CCNC(=O)N1OC1c1ccccc1 (stereo not drawn) [Ox4, 3-Phenyl-N-(prop-2-yn-1-yl)-1,2-oxaziridine-2-carboxamide] | > 95 | 50 | 
CCNC(=O)N[S+](C)c1ccccc1.[Cl-] (stereo not drawn) [Ox S4] |  |  | stable in aqueous solution
